# The source made the active and inactive calls. No cut-off for these calls is given here.
# Experiments:
# [1] = molecular target: T1, Transient receptor potential cation channel subfamily V member 1 (Homo sapiens, UniProt Q8NER1); assay: Antagonist activity against human TRPV1 expressed in HEK293 cells assessed as capsaicin-induced calcium flux by FLIPR assay; format: cell-based
# [2] = molecular target: T1, Transient receptor potential cation channel subfamily V member 1; assay: Antagonist activity against human TRPV1 expressed in HEK293 cells assessed as ph 5.0-induced calcium flux at 30 uM by FLIPR assay; format: cell-based
# Rattus norvegicus [3] = organism: Rattus norvegicus; assay: Induction of hyperthermia in rat assessed as increase in body temperature measured every 5 mins during study period by telemetry; format: organism-based; details: in vivo
# Cytochrome P450 2D6 = Cytochrome P450 2D6 (Homo sapiens, UniProt P10635); assay: Inhibition of CYP2D6 in human liver microsomes using AMMC substrate and NADPH incubated up to 2 hrs; format: ADME
# Cytochrome P450 2D6, sequence (P10635 whole entry): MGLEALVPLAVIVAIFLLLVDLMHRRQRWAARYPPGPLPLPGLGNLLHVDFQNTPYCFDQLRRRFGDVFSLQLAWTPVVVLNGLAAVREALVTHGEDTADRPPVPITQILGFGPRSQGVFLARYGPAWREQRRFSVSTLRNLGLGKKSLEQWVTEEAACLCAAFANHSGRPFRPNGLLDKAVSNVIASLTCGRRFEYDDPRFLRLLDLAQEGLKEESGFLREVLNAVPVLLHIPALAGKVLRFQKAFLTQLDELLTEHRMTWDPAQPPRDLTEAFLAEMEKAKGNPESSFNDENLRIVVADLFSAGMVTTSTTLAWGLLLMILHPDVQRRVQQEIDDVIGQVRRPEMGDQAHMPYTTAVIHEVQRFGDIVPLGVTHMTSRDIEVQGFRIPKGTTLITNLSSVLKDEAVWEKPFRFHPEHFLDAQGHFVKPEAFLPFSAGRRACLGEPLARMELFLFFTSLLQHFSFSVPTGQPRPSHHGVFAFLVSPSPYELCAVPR
# [4] = Intrinsic clearance in human liver microsomes; format: ADME; details: read-out: CLH
# [5] = molecular target: Transient receptor potential cation channel subfamily V member 1 (Rattus norvegicus) (UniProt O35433); assay: Antagonist activity against rat TRPV1 expressed in HEK293 cells assessed as capsaicin-induced calcium flux by FLIPR assay; format: cell-based
# Transient receptor potential cation channel subfamily V member 1 (Rattus norvegicus), sequence (O35433 whole entry): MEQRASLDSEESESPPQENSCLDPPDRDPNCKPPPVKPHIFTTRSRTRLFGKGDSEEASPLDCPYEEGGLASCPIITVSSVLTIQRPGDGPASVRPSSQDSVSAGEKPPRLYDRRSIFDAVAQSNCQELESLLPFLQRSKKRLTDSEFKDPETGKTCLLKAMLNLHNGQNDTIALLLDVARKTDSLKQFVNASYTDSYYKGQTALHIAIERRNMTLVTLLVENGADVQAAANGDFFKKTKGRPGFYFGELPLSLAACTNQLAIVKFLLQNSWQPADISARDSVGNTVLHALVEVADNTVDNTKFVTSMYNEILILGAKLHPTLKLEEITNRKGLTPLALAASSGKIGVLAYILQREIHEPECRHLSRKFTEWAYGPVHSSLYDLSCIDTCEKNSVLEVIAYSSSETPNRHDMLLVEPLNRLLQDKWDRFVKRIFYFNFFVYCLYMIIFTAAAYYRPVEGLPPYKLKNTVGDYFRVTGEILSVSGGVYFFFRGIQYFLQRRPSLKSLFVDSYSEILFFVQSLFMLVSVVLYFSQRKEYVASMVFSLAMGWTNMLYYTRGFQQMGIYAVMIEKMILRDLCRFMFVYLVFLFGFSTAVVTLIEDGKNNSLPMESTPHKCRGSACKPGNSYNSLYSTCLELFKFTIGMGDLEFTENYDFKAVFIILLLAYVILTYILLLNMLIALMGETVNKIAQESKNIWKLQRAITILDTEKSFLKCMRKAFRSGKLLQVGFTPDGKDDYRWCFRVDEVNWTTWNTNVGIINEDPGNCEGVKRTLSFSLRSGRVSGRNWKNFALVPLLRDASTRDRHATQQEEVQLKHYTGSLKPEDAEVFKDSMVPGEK
# [6] = molecular target: Transient receptor potential cation channel subfamily V member 1 (Rattus norvegicus) (UniProt O35433); assay: Antagonist activity against TRPV1 in rat dorsal root ganglion by whole cell patch clamp electrophysiology method; format: tissue-based
# [7] = molecular target: Transient receptor potential cation channel subfamily V member 1 (Rattus norvegicus) (UniProt O35433); assay: Antagonist activity against rat TRPV1 expressed in HEK293 cells assessed as pH 5.0-induced calcium flux by FLIPR assay; format: cell-based
# [8] = Elimination half life in Sprague-Dawley rat at 10 umol/kg, iv; format: ADME, organism-based; details: in vivo, read-out: beta t1/2 (converted)
# [9] = Volume of distribution at steady state in Sprague-Dawley rat at 10 umol/kg, iv; format: ADME, organism-based; details: in vivo, read-out: Vdss
# [10] = AUC in Sprague-Dawley rat at 10 umol/kg, iv; format: ADME, organism-based; details: plasma
# [11] = Plasma clearance in Sprague-Dawley rat at 10 umol/kg, iv; format: ADME, organism-based
# [12] = Elimination half life in Sprague-Dawley rat at 10 umol/kg, po; format: ADME, organism-based; details: in vivo, read-out: beta t1/2 (converted)
# [13] = Cmax in Sprague-Dawley rat at 10 umol/kg, po; format: ADME, organism-based; parameters: dose 10 umol/kg, route oral; details: in vivo
# [14] = Oral bioavailability in Sprague-Dawley rat at 10 umol/kg; format: ADME, organism-based; details: in vivo
# [15] = AUC in Sprague-Dawley rat at 10 umol/kg, po; format: ADME, organism-based; details: plasma
# [16] = Plasma protein binding in Sprague-Dawley rat at 10 umol/kg, po; format: ADME, cell-free; details: read-out: PPB (converted)
# [17] = Ratio of drug level in brain to plasma of Sprague-Dawley rat at 10 umol/kg, po; format: ADME; details: read-out: BPR
# Rattus norvegicus [18] = organism: Rattus norvegicus; assay: Reduction in capsaicin-induced nocifensive behavior in rat capsaicin flinch model; format: functional
# Rattus norvegicus [19] = organism: Rattus norvegicus; assay: Reduction in capsaicin-induced nocifensive behavior in rat assessed as plasma concentration causing reduction in nocifensive behavior; format: functional; details: read-out: ED50 (the source's name)
# Rattus norvegicus [20] = organism: Rattus norvegicus; assay: Analgesic activity in monoiodoacetate-induced osteoarthritis acute rat pain model measured 1 hr post dose; format: functional
# Rattus norvegicus [21] = assay: Analgesic activity in monoiodoacetate-induced osteoarthritis sub-chronic rat pain model dosed twice daily for 12 days; format: functional
# Rattus norvegicus [22] = assay: Analgesic activity in monoiodoacetate-induced osteoarthritis sub-chronic rat pain model dosed twice daily for 12 days measured 24 hrs after dosing completion; format: functional
# Rattus norvegicus [23] = assay: Increase in core body temperature in conscious rat at 100 umol/kg, po administered as single dose measured every 5 mins over 8 hrs study period by telemetry; format: ADME, organism-based; details: in vivo
# Canis familiaris [24] = assay: Increase in core body temperature in beagle dog at 100 umol/kg, po administered as single dose measured every 5 mins over 6 hrs study period by telemetry; format: ADME, organism-based, Canis lupus familiaris; details: in vivo
# Rattus norvegicus [25] = assay: Increase in core body temperature in conscious rat at 30 umol/kg, po administered as single dose measured every 5 mins over study period by telemetry; format: ADME, organism-based; details: in vivo
# Canis familiaris [26] = assay: Increase in core body temperature in beagle dog at 30 umol/kg, po administered as single dose measured every 5 mins over study period by telemetry; format: ADME, organism-based, Canis lupus familiaris; details: in vivo
# Rattus norvegicus [27] = organism: Rattus norvegicus; assay: Reduction in capsaicin-induced nocifensive behavior in rat assessed at plasma concentration of 10 to 10000 ng/ml; format: functional
# T1 sequence (Q8NER1 whole entry): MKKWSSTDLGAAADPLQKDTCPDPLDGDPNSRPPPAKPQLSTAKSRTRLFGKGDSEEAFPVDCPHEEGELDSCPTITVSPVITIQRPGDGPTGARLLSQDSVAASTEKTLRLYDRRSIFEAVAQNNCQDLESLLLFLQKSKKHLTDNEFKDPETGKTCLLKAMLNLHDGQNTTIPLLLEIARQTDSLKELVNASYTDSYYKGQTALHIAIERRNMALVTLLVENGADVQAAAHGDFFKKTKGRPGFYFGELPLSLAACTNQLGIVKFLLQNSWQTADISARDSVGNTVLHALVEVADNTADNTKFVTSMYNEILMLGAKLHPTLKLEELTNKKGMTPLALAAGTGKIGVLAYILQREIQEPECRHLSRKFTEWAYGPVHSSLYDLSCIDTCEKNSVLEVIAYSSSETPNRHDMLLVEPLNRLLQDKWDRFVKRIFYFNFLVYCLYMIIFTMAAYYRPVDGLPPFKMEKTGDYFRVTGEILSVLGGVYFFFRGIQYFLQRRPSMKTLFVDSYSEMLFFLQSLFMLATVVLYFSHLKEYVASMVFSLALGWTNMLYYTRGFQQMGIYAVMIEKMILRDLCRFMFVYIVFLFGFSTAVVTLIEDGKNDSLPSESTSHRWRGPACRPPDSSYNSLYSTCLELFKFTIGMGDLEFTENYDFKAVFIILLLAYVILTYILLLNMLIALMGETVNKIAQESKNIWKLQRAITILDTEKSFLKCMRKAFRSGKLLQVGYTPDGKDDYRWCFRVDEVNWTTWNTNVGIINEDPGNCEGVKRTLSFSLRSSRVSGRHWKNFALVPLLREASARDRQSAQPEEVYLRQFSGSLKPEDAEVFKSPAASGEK
smiles,measurement,setting,value
Cc1cc2c(NC(=O)N[C@@H]3CC(CF)(CF)Oc4cc(Cl)ccc43)cccc2cn1,IC50,[1],9 nM
same,inhibition,[2],62%
same,deltaT,Rattus norvegicus [3],0 °C
same,IC50,Cytochrome P450 2D6,4900 nM
same,microsomal CLint,[4],98 µL/min/mg
same,inhibition,[5],Active
same,inhibition,[6],Active
same,inhibition,[7],inactive
same,half-life,[8],1.7 h
same,Vd,[9],0.8 L/kg
same,AUC,[10],9400 ng·h/mL
same,clearance,[11],8.33 mL/min/kg
same,half-life,[12],1.9 h
same,Cmax,[13],1300 ng/mL
same,bioavailability,[14],48%
same,AUC,[15],4600 ng·h/mL
same,fraction unbound,[16],0.006
same,Kp,[17],0.06
same,ED50,Rattus norvegicus [18],9.5 µmol/kg
same,EC50,Rattus norvegicus [19],970 nM
same,Efficacy,Rattus norvegicus [20],68%
same,ED50,"Rattus norvegicus [20]; Rattus norvegicus, 1 h",35 µmol/kg
same,Efficacy,Rattus norvegicus [21],78%
same,ED50,"Rattus norvegicus [21]; Rattus norvegicus, 288 h",11 µmol/kg
same,Efficacy,Rattus norvegicus [22],55%
same,Activity,Rattus norvegicus [23],Non-toxic
same,Activity,Canis familiaris [24],Non-toxic
same,Activity,Rattus norvegicus [25],Toxic
same,Activity,Canis familiaris [26],Toxic
same,Efficacy,Rattus norvegicus [27],58%
